What was measured:
B16F10 mouse melanoma = assay: SPECT/CT imaging of mice bearing B16F10 mouse melanoma; type: in vivo, C57BL/6J mice; conditions: 24 h p.i.
Experimental: SPECT/CT imaging experiments were conducted using a preclinical U-SPECT-II/CT scanner (MILabs). For SPECT scans, each tumour-bearing mouse was injected with approximately 37 MBq of ^177Lu-labeled αMSH analogues via tail vein under anesthesia. After the injection, mice were allowed to recover and roam freely in their cages. At 1, 4, 24, and 120 h p.i., the mice were sedated again with 2% isoflurane inhalation and positioned in the scanner, and kept warm by a heating pad. A 3 min CT scan was conducted to acquire anatomical information, followed by a 60 min static emission scan in list mode with an extra ultrahigh-sensitivity multipinhole mouse collimator. The images were reconstructed using the ordered subset expectation maximization algorithm (4 iterations, 32 subsets) and a 1 mm post-processing Gaussian filter. The radioactivity in the SPECT scans were decay corrected to the injection time in the PMOD software, and converted to DICOM for quantitation and visualization in the Inveon Research Workplace software (Siemens). SPECT images of all six αMSH analogues radiolabeled with ^177Lu in mice bearing B16F10 mouse melanoma at 24 h p.i. are showing in FIG. 5. […] The sustained tumour uptake is particularly beneficial for radioligand therapy.

[1] = Biodistribution of 177Lu-labeled αMSH analogues in mice bearing SK-MEL-1 human melanoma; conditions: male, mouse, total radioactivity; for tissue to tissue ratio at 1 h: 1 h p.i.; for tissue to tissue ratio at 1 h / tissue to tissue ratio at 4 h / tissue to tissue ratio at 24 h / tissue to tissue ratio at 120 h: NRG mice, SK-MEL-1 melanoma; for tissue to tissue ratio at 4 h: 4 h p.i.; for tissue to tissue ratio at 24 h: 24 h p.i.; for tissue to tissue ratio at 120 h: 120 h p.i.
Experimental: The SK-MEL-1 human melanoma cell line (HTB-67) was obtained commercially from ATCC. SK-MEL-1 cells were cultured in Eagle's Minimum Essential Medium (StemCell Technologies) under the same conditions as described in Example 1. Immunodeficient NOD.Cg-Rag1tm1Mom I12rgtm1Wjl/SzJ (NRG) male mice were obtained from an in-house breeding colony at the BC Cancer Research Centre. For tumor implantation, male NRG mice were anesthetized by inhalation with 2% isoflurane, and 5 million SK-MEL-1 cells were inoculated subcutaneously on the right dorsal flank. Mice were used for imaging or biodistribution studies when the tumors reached 6-8 mm in diameter in 16-20 days.
Biodistribution studies were performed as described in Example 3.

B16-F10 tumours = assay: PET/CT imaging of B16-F10 tumour-bearing mice; type: in vivo, C57BL/6J mice
Experimental: PET imaging experiments were conducted using a preclinical micro PET/CT scanner (Siemens inveon). For static PET scan, each tumour bearing mouse was injected with 4-6 MBq of ^68Ga-labeled CCZ01099 via tail vein under anesthesia. After the injection, mice were allowed to recover and roam freely in their cages. At 1 or 2 h p.i., the mice were sedated again with 2% isoflurane inhalation and positioned in the scanner, and kept warm by a heating pad. A 10 min baseline CT scan using 60 kV X-rays at 500 μA was obtained for localization and attenuation correction after segmentation for reconstructing the PET images. A single 12 min static PET scan was acquired following the CT scan. The mice were euthanized using CO2 inhalation after imaging.

[2] = NRG (NOD.Cg-Rag1tm1Mom I12rgtm1Wjl/SzJ), fat, iv
[3] = NRG (NOD.Cg-Rag1tm1Mom I12rgtm1Wjl/SzJ), seminal glands, iv
[4] = NRG (NOD.Cg-Rag1tm1Mom Il2rgtm1Wjl/SzJ), SK-MEL-1 tumour
[5] = NRG (NOD.Cg-Rag1tm1Mom Il2rgtm1Wjl/SzJ), adrenal glands
[6] = NRG (NOD.Cg-Rag1tm1Mom Il2rgtm1Wjl/SzJ), blood
[7] = NRG (NOD.Cg-Rag1tm1Mom Il2rgtm1Wjl/SzJ), bone
[8] = NRG (NOD.Cg-Rag1tm1Mom Il2rgtm1Wjl/SzJ), brain
[9] = NRG (NOD.Cg-Rag1tm1Mom Il2rgtm1Wjl/SzJ), heart
[10] = NRG (NOD.Cg-Rag1tm1Mom Il2rgtm1Wjl/SzJ), intestine
[11] = NRG (NOD.Cg-Rag1tm1Mom Il2rgtm1Wjl/SzJ), kidneys
[12] = NRG (NOD.Cg-Rag1tm1Mom Il2rgtm1Wjl/SzJ), liver
[13] = NRG (NOD.Cg-Rag1tm1Mom Il2rgtm1Wjl/SzJ), lungs
[14] = NRG (NOD.Cg-Rag1tm1Mom Il2rgtm1Wjl/SzJ), muscle
[15] = NRG (NOD.Cg-Rag1tm1Mom Il2rgtm1Wjl/SzJ), pancreas
[16] = NRG (NOD.Cg-Rag1tm1Mom Il2rgtm1Wjl/SzJ), spleen
[17] = NRG (NOD.Cg-Rag1tm1Mom Il2rgtm1Wjl/SzJ), stomach
[18] = NRG (NOD.Cg-Rag1tm1Mom Il2rgtm1Wjl/SzJ), testes
[19] = NRG (NOD.Cg-Rag1tm1Mom Il2rgtm1Wjl/SzJ), thyroid
[20] = NRG (NOD.Cg-Rag1tm1Mom Il2rgtm1Wjl/SzJ), tumour/blood
[21] = NRG (NOD.Cg-Rag1tm1Mom Il2rgtm1Wjl/SzJ), tumour/kidney
[22] = NRG (NOD.Cg-Rag1tm1Mom Il2rgtm1Wjl/SzJ), tumour/muscle
[23] = NRG (NOD.Cg-Rag1tm1Mom Il2rgtm1Wjl/SzJ), urine

With `CCCC[C@H](NC(=O)CN1CCC(NC(=O)[C@H](CCCCNC(=O)CN2CCN(CC(=O)O)CCN(CC(=O)O)CCN(CC(=O)O)CC2)NC(=O)[C@H](CCC(=O)O)NC(=O)CCCc2ccc(I)cc2)CC1)C(=O)N[C@H]1CC(=O)NCCCC[C@@H](C(N)=O)N(C)C(=O)[C@H](Cc2c[nH]c3ccccc23)NC(=O)[C@H](CCCNC(=N)N)N(C)C(=O)[C@@H](Cc2ccccc2)NC(=O)[C@H](Cc2c[nH]cn2)NC1=O` [^177Lu-labeled CCZ01118, metal not drawn] the “Tumour visualization with SPECT imaging” value (B16F10 mouse melanoma) was “clearly visualized”, the tissue uptake at 1 h [1, 2] was 1.18 ± 0.08 %ID/g and the tissue uptake at 4 h [1, 2] was 0.45 ± 0.26 %ID/g. The tissue uptake at 24 h [1, 2] was 0.1 ± 0.05 %ID/g, the tissue uptake at 120 h [1, 2] was 0.08 ± 0.02 %ID/g and the tissue uptake at 1 h [1, 3] was 0.59 ± 0.08 %ID/g. For the same compound, the tissue uptake at 4 h [1, 3] was 1.53 ± 2.82 %ID/g, the tissue uptake at 24 h [1, 3] was 0.06 ± 0.01 %ID/g and the tissue uptake at 120 h [1, 3] was 0.03 ± 0.01 %ID/g. The tissue uptake at 1 h [1, 4] was 10.5 ± 3.29 %ID/g, the tissue uptake at 4 h [1, 4] was 14 ± 2.36 %ID/g and the tissue uptake at 24 h [1, 4] was 10.1 ± 2.13 %ID/g. It also gave a tissue uptake at 120 h [1, 4] of 4.8 ± 0.26 %ID/g, a tissue uptake at 1 h [1, 5] of 2.99 ± 2.15 %ID/g and a tissue uptake at 4 h [1, 5] of 1.21 ± 0.59 %ID/g. The tissue uptake at 24 h [1, 5] was 0.27 ± 0.13 %ID/g, the tissue uptake at 120 h [1, 5] was 0.3 ± 0.16 %ID/g and the tissue uptake at 1 h [1, 6] was 9.63 ± 0.78 %ID/g. The tissue uptake at 4 h [1, 6] was 2.46 ± 0.64 %ID/g, the tissue uptake at 24 h [1, 6] was 0.07 ± 0.03 %ID/g and the tissue uptake at 120 h [1, 6] was 0.02 %ID/g. The tissue uptake at 1 h [1, 7] was 1.1 ± 0.5 %ID/g, the tissue uptake at 4 h [1, 7] was 0.35 ± 0.08 %ID/g and the tissue uptake at 24 h [1, 7] was 0.15 ± 0.02 %ID/g. It also gave a tissue uptake at 120 h [1, 7] of 0.26 ± 0.39 %ID/g, a tissue uptake at 1 h [1, 8] of 0.17 ± 0.02 %ID/g and a tissue uptake at 4 h [1, 8] of 0.06 ± 0.01 %ID/g. It also gave a tissue uptake at 24 h [1, 8] of 0.01 %ID/g, a tissue uptake at 120 h [1, 8] of 0.01 %ID/g and a tissue uptake at 1 h [1, 9] of 2.5 ± 0.3 %ID/g. The tissue uptake at 4 h [1, 9] was 0.84 ± 0.23 %ID/g, the tissue uptake at 24 h [1, 9] was 0.14 ± 0.04 %ID/g and the tissue uptake at 120 h [1, 9] was 0.08 ± 0.02 %ID/g. For the same compound, the tissue uptake at 1 h [1, 10] was 1.42 ± 0.22 %ID/g, the tissue uptake at 4 h [1, 10] was 0.79 ± 0.5 %ID/g and the tissue uptake at 24 h [1, 10] was 0.19 ± 0.03 %ID/g. It also gave a tissue uptake at 120 h [1, 10] of 0.08 ± 0.01 %ID/g, a tissue uptake at 1 h [1, 11] of 13.4 ± 2.53 %ID/g and a tissue uptake at 4 h [1, 11] of 12.8 ± 2.29 %ID/g. For the same compound, the tissue uptake at 24 h [1, 11] was 6.48 ± 1.25 %ID/g, the tissue uptake at 120 h [1, 11] was 1.69 ± 0.13 %ID/g and the tissue uptake at 1 h [1, 12] was 6.91 ± 1.09 %ID/g. The tissue uptake at 4 h [1, 12] was 5.77 ± 1.62 %ID/g, the tissue uptake at 24 h [1, 12] was 4.36 ± 1.11 %ID/g and the tissue uptake at 120 h [1, 12] was 2.42 ± 0.33 %ID/g. The tissue uptake at 1 h [1, 13] was 6.59 ± 1.06 %ID/g, the tissue uptake at 4 h [1, 13] was 2.5 ± 0.67 %ID/g and the tissue uptake at 24 h [1, 13] was 0.86 ± 0.87 %ID/g. For the same compound, the tissue uptake at 120 h [1, 13] was 0.15 ± 0.12 %ID/g, the tissue uptake at 1 h [1, 14] was 0.98 ± 0.12 %ID/g and the tissue uptake at 4 h [1, 14] was 0.36 ± 0.11 %ID/g. The tissue uptake at 24 h [1, 14] was 0.05 ± 0.01 %ID/g, the tissue uptake at 120 h [1, 14] was 0.02 ± 0.01 %ID/g and the tissue uptake at 1 h [1, 15] was 1.4 ± 0.24 %ID/g. The tissue uptake at 4 h [1, 15] was 0.49 ± 0.08 %ID/g, the tissue uptake at 24 h [1, 15] was 0.1 ± 0.02 %ID/g and the tissue uptake at 120 h [1, 15] was 0.05 %ID/g. For the same compound, the tissue uptake at 1 h [1, 16] was 3.06 ± 0.53 %ID/g, the tissue uptake at 4 h [1, 16] was 1.45 ± 0.33 %ID/g and the tissue uptake at 24 h [1, 16] was 1.2 ± 0.56 %ID/g. The tissue uptake at 120 h [1, 16] was 0.98 ± 0.29 %ID/g, the tissue uptake at 1 h [1, 17] was 0.56 ± 0.1 %ID/g and the tissue uptake at 4 h [1, 17] was 0.44 ± 0.25 %ID/g. For the same compound, the tissue uptake at 24 h [1, 17] was 0.36 ± 0.2 %ID/g, the tissue uptake at 120 h [1, 17] was 0.13 ± 0.05 %ID/g and the tissue uptake at 1 h [1, 18] was 1.58 ± 0.32 %ID/g. For the same compound, the tissue uptake at 4 h [1, 18] was 0.84 ± 0.2 %ID/g, the tissue uptake at 24 h [1, 18] was 0.22 ± 0.04 %ID/g and the tissue uptake at 120 h [1, 18] was 0.16 ± 0.04 %ID/g. It also gave a tissue uptake at 1 h [1, 19] of 4.03 ± 0.45 %ID/g, a tissue uptake at 4 h [1, 19] of 3.11 ± 0.46 %ID/g and a tissue uptake at 24 h [1, 19] of 2.49 ± 0.64 %ID/g. It also gave a tissue uptake at 120 h [1, 19] of 1.83 ± 0.21 %ID/g, a tissue to tissue ratio at 1 h [1, 20] of 1.08 ± 0.3 and a tissue to tissue ratio at 4 h [1, 20] of 5.84 ± 0.96. The tissue to tissue ratio at 24 h [1, 20] was 165 ± 50.1, the tissue to tissue ratio at 120 h [1, 20] was 246 ± 28.6 and the tissue to tissue ratio at 1 h [1, 21] was 0.77 ± 0.12. It also gave a tissue to tissue ratio at 4 h [1, 21] of 1.1 ± 0.08, a tissue to tissue ratio at 24 h [1, 21] of 1.55 ± 0.1 and a tissue to tissue ratio at 120 h [1, 21] of 2.85 ± 0.22. For the same compound, the tissue to tissue ratio at 1 h [1, 22] was 10.6 ± 2.98, the tissue to tissue ratio at 4 h [1, 22] was 41.5 ± 9.8 and the tissue to tissue ratio at 24 h [1, 22] was 201 ± 10.4. It also gave a tissue to tissue ratio at 120 h [1, 22] of 269 ± 79.1, an excreta dose per gram or mL at 1 h [1, 23] of 376 ± 154 %ID/g and an excreta dose per gram or mL at 4 h [1, 23] of 154 ± 39.2 %ID/g. It also gave an excreta dose per gram or mL at 24 h [1, 23] of 5.39 ± 1.23 %ID/g and an excreta dose per gram or mL at 120 h [1, 23] of 1.12 ± 0.38 %ID/g.
With `CCCC[C@H](NC(=O)CN1CCC(NC(=O)CN2CCN(CC(=O)O)CCN(CC(=O)O)CCN(CC(=O)O)CC2)CC1)C(=O)N[C@H]1CC(=O)NCCCC[C@@H](C(N)=O)N(C)C(=O)[C@H](Cc2c[nH]c3ccccc23)N(C)C(=O)[C@H](CCCNC(=N)N)N(C)C(=O)[C@@H](Cc2ccccc2)NC(=O)[C@H](Cc2c[nH]cn2)N(C)C1=O` [^68Ga-labeled CCZ01099, metal not drawn] the “Tumour visualization on PET images” value (B16-F10 tumours; 1 h and 2 h p.i.) was “Tumours were clearly visualized” and the “Tumour uptake on PET with co-injection of MC1R-specific inhibitor BMS 470539” value (B16-F10 tumours; 1 h p.i., 0.5 mg BMS 470539) was “tumour uptake was abolished”.
